From US7683061B2, “Triazine dimers for the treatment of autoimmune diseases” (ProMetic BioSciences Inc., priority 2003, dated 2010)

What was measured:
[1] = test system: RAW 264.7 cells; assay: Phagocytosis of FITC-immune complexes by RAW 264.7 cells; format: cell-based
Method: This assay was performed to determine the ability of protein A mimic compounds to stimulate or inhibit uptake of FITC-Immune Complex (IC). FITC-IC was prepared by mixing human serum albumin (HSA)-fluorescein isothiocyanate (FITC) with mouse IgG anti-HSA at a 1:4 ratio (four molecules of antibody for one molecule of antigen) on a rotary shaker for 1 h at room temperature. Soluble IC was then incubated with or without compounds or protein A for 10 min. This mixture was added to RAW 264.7 cells and incubated for 2 h at 37° C. for IC phagocytosis. After incubation, cells were washed twice in cold PBS (5 min, 1200 rpm) and fixed with 500 μL PBS containing 2% formaldehyde. FITC signal taken up by RAW 264.7, which is indicative of IC phagocytosis, was determined by flow cytometry analysis in a Becton Coulter counter with an argon laser and signal was measured through a 530/30 nm filter.

[2] = test system: female Lewis rats, collagen-induced arthritis; assay: Collagen-induced arthritis (CIA); format: in vivo; details: intravenous; from day 16 to day 21
Method: Collagen-induced arthritis (CIA) was induced in female Lewis rats by intradermal administration of heterologous (bovine) type II collagen (250 μg) solubilized in 0.1 M acetic acid and emulsified in Complete Freund's Adjuvant (CFA). Rats were treated with the vehicle or methotrexate or compound 1 by intravenous injections at day 8, 9, 12, 14 and 16. Synovitis typically develops 12-15 days postimmunization in 80-90% of the animals. Once arthritis appears, each paw was examined two to three times a week. Both the incidence and severity of the arthritis was evaluated. Incidence is defined as the number of rats with clinical evidence of joint inflammation during the study period while severity was quantified by scoring daily each paw integer on a scale of 0 to 4 (0=normal, 4=maximum; Table 7) based on increasing levels of swelling, periarticular erythema and stiffness. The sum of the scores for all four paws was calculated as the arthritic index with a maximum possible score of 16 per rat. Since CIA primarily affects hind limbs, scores of 6-8 represent severe arthritis.

[3] = target: TNFα / p75 TNFα receptor (CD120b) (Homo sapiens, UniProt P01375); assay: Binding ELISA: sTNF-R2 binding to plastic coated TNF-α
Method: Compounds were tested for their ability to bind to TNFα or inhibit the interaction of TNFα with its respective receptors; p55 and p75 TNFα receptor. Three binding ELISA assays were undertaken as described by Mancini et al. Biochemical Pharmacology 58, 851-859 (1999). TNFα or receptor (1 μg/mL) was coated on a 96-well plate Maxisorp, overnight at 4° C. After incubation, unbound TNFα or p55 TNFα receptor or p75 TNFα receptor was removed and the plate washed three times with PBS. The plate was then incubated with 100 μL/well of a 2% BSA solution for 1 h at 37° C. to block non specific protein binding. After incubation, the plate was washed three times with PBS. Biotinylated recombinant human TNFα p55 or p75 receptor or biotinylated recombinant human TNFα was added to the wells in the presence or absence of compounds. The plate was incubated for 1 h at 37° C. After incubation, the plate was washed three times with PBS to remove unbound labeled p55 or p75 receptor or recombinant human TNFα. 100 μL of avidin-HRP (diluted 1/2000 in PBS-0.1% BSA) was added to each well and incubated 1 h at 37° C. Bound p55 or p75 receptor or recombinant human TNFα was detected by the addition of 200 μL of 3,3′,5,5′-tetramethylbenzidine (TMB) per well for 15 min. The plate was then read at 655 nm on a EL 800 universal Microplate reader (Bio-Tek, Mississauga, Canada). Data was analyzed in Microsoft Excel and recorded as the percentage of inhibition of p55 or p75 binding to TNFα or TNFα binding to RI (p55) or RII (p75).

Sequence of TNFα / p75 TNFα receptor (CD120b) (P01375 77-233 limits assumed): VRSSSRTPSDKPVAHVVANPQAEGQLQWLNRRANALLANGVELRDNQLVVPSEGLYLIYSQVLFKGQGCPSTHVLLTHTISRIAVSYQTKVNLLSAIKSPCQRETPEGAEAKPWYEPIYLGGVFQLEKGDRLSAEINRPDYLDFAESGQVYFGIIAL

SMILES: Oc1ccc(CCNc2nc(NCCNc3nc(NCCc4ccc(O)cc4)nc(Nc4ccccc4)n3)nc(Nc3ccccc3)n2)cc1 [Compound 1]
- inhibition of phagocytosis of IC ([1]; 10 and 20 μM): approximately 20%
- phagocytosis of IC ([1]; concentrations of 1, 2 and 4 μM): increase
- reduction of the arthritic index [2]: 20%
- inhibition at 100 µM ([3]; 10^−4 M): 0%
- inhibition at 10 µM ([3]; 10^−5 M): 0%
